US9187467B2, “2-phenyl benzothiazole linked imidazole compounds as potential anticancer agents and process for the preparation thereof” (Council of Scientific and Industrial Research, priority 2012, dated 2015)
Where two headings read alike, the source gives them in different places.

Tests used:
Assay type in all cases: cell-based, human
HL-60 (TB) = experiment: SRB anticancer assay, leukemia; parameters: Log10GI50: unit not given here
K-562 = experiment: SRB anticancer assay, leukemia; parameters: Log10GI50: unit not given here
MOLT-4 = experiment: SRB anticancer assay, leukemia; parameters: Log10GI50: unit not given here
HCT-116 = experiment: SRB anticancer assay, colon; conditions: Homo sapiens, HCT-116, 48 h
SW-620 = experiment: SRB anticancer assay, colon; parameters: Log10GI50: unit not given here
SNB-19 = experiment: SRB anticancer assay, CNS; parameters: Log10GI50: unit not given here
SNB-75 = experiment: SRB anticancer assay, CNS; parameters: Log10GI50: unit not given here
U251 = experiment: SRB anticancer assay, CNS; parameters: Log10GI50: unit not given here; conditions: U251; present compounds
OVCAR-5 = experiment: SRB anticancer assay, ovarian; conditions: Homo sapiens, OVCAR-5, 48 h
786-0 = experiment: SRB anticancer assay, renal
UO-31 = experiment: SRB anticancer assay, renal; parameters: Log10GI50: unit not given here
RXF 393 = experiment: SRB anticancer assay, renal; parameters: Log10GI50: unit not given here
DU-145 = experiment: SRB anticancer assay, prostate; parameters: Log10GI50: unit not given here
MDA-MB-231/ATCC = experiment: SRB anticancer assay, breast; parameters: Log10GI50: unit not given here; conditions: for GI50: 48 h
BT-549 = experiment: SRB anticancer assay, breast; parameters: Log10GI50: unit not given here
MALME-3M = experiment: SRB anticancer assay, melanoma; parameters: Log10GI50: unit not given here
SK-MEL-2 = experiment: SRB anticancer assay, melanoma
Breast cancer cell lines = experiment: SRB anticancer assay, panel result
Protocol: (§1) The compounds were evaluated for anticancer activity against sixty human cancer cells derived from nine cancer types (leukemia cell line, non-small-cell lung cell line, colon cell line, CNS cell line, melanoma cell line, ovarian cell line, prostate cell line, renal cancer cell line and breast cancer cell line) as shown in Table 1. For each compound, dose response curves for each cell line were measured at a minimum of five concentrations at 10 fold dilutions. A protocol of 48 h continuous drug exposure was used and a sulforhodamine B (SRB) protein assay was used to estimate cell viability or growth.

CNS cancer cell lines = experiment: SRB anticancer assay, panel result
Protocol: as §1

Colon cancer cell lines = experiment: SRB anticancer assay, panel result
Protocol: as §1

[1] = tested on: Leukemia cancer cell lines; experiment: SRB anticancer assay, panel result
Protocol: as §1

[2] = tested on: Melanoma cancer cell lines; experiment: SRB anticancer assay, panel result
Protocol: as §1

[3] = tested on: Non-small cell lung cancer cell lines; experiment: SRB anticancer assay, panel result
Protocol: as §1

[4] = tested on: Ovarian cancer cell lines; experiment: SRB anticancer assay, panel result
Protocol: as §1

[5] = tested on: Prostate cancer cell lines; experiment: SRB anticancer assay, panel result
Protocol: as §1

Renal cancer cell lines = experiment: SRB anticancer assay, panel result
Protocol: as §1

## COc1cc(-c2cncn2-c2ccc(-c3nc4ccc(F)cc4s3)cc2)ccc1F [Compound 4c, 6-Fluoro-2-(4-(5-(4-fluoro-3-methoxyphenyl)-1H-imidazol-1-yl)phenyl)benzo[d]thiazole]
HL-60 (TB); HL-60(TB), present compounds
  Log10GI50: −5.60
HL-60 (TB); Homo sapiens, HL-60, 48 h
  GI50: 2.5 µM
K-562; Homo sapiens, K562, K-562, 48 h
  GI50: 3.93 µM
K-562; K-562, present compounds
  Log10GI50: −5.41
MOLT-4; Homo sapiens, MOLT-4, 48 h
  GI50: 3.41 µM
MOLT-4; MOLT, present compounds
  Log10GI50: −5.47
HCT-116
  GI50: 4.36 µM
SW-620; Homo sapiens, SW-620, 48 h
  GI50: 7.81 µM
SW-620; SW-620, present compounds
  Log10GI50: −5.11
SNB-19; Homo sapiens, SNB-19, 48 h
  GI50: 20.6 µM
SNB-19; SNB-19, present compounds
  Log10GI50: >−4.0
SNB-75; Homo sapiens, SNB-75, 48 h
  GI50: 12.6 µM
SNB-75; SNB-75, present compounds
  Log10GI50: −4.69
U251
  Log10GI50: −4.90
OVCAR-5
  GI50: > 100 µM
786-0; 786-0, present compounds
  Log10GI50: −4.44 log10 M
786-0; Homo sapiens, 786-0, 48 h
  GI50: 36.1 µM
UO-31; Homo sapiens, UO-31, 48 h
  GI50: 16.5 µM
UO-31; UO-31, present compounds
  Log10GI50: −4.78
RXF 393; Homo sapiens, RXF 393, 48 h
  GI50: 13.5 µM
RXF 393; RXF 393, present compounds
  Log10GI50: −4.87
DU-145; DU-145, present compounds
  Log10GI50: −4.85
DU-145; Homo sapiens, DU-145, 48 h
  GI50: 14.3 µM
MDA-MB-231/ATCC; Homo sapiens, MDA-MB-231, 48 h, MDA-MB-231/ATCC (row head MDA-MB-), read-out: GI50
  GI50: 32.2 µM
MDA-MB-231/ATCC; MDA-MB-231/ATCC, present compounds
  Log10GI50: −4.49
MDA-MB-231/ATCC; listed as head printed 231/ATCC (second line of MDA-MB-231/ATCC)
  GI50: —a
BT-549; BT-549, present compounds
  Log10GI50: −4.94
BT-549; Homo sapiens, BT-549, 48 h
  GI50: 7.98 µM
MALME-3M; Homo sapiens, Malme-3M, 48 h
  GI50: 11.1 µM
MALME-3M; MALME-3M, present compounds
  Log10GI50: −4.95
SK-MEL-2; Homo sapiens, SK-MEL-2, 48 h
  GI50: 39.7 µM
SK-MEL-2; SK-MEL-2, present compounds
  Log10GI50: −4.40 M
Breast cancer cell lines; Breast panel
  mean graph midpoint value (MG_MID) of Log10 GI50: −4.82 mol/L
Breast cancer cell lines; Breast panel, total inhibition of net cell growth
  mean graph midpoint value (MG_MID) of log10 TGI: −4.02
Breast cancer cell lines; Homo sapiens, Breast panel, 50% net cell death, read-out: mean graph midpoint value (MG_MID) of Log10 LC50 (converted)
  CC50: > 100 µM
Breast cancer cell lines; Homo sapiens, six breast cancer cell lines, exposure at least 48 h, read-out: GI50, range over the panel
  GI50: 7.98 to 32.2 µM
CNS cancer cell lines; CNS panel
  mean graph midpoint value (MG_MID) of Log10 GI50: −4.52 mol/L
CNS cancer cell lines; CNS panel, total inhibition of net cell growth
  mean graph midpoint value (MG_MID) of log10 TGI: −4.05
CNS cancer cell lines; Homo sapiens, CNS panel, 50% net cell death, read-out: mean graph midpoint value (MG_MID) of Log10 LC50 (converted)
  CC50: > 100 µM
CNS cancer cell lines; Homo sapiens, six CNS cancer cell lines, exposure at least 48 h, read-out: GI50, range over the panel
  GI50: 12.6 to 75.9 µM
Colon cancer cell lines; Colon panel
  mean graph midpoint value (MG_MID) of Log10 GI50: −4.71 log10(mol/L)
Colon cancer cell lines; Colon panel, total inhibition of net cell growth
  mean graph midpoint value (MG_MID) of log10 TGI: −4.06
Colon cancer cell lines; Homo sapiens, Colon panel, 50% net cell death, read-out: mean graph midpoint value (MG_MID) of Log10 LC50 (converted)
  LC50: > 100 µM
Colon cancer cell lines; Homo sapiens, seven colon cancer cell lines, exposure at least 48 h, read-out: GI50, range over the panel
  GI50: 4.36 to 82.3 µM
[1]; Homo sapiens, Leukemia panel, 50% net cell death, read-out: mean graph midpoint value (MG_MID) of Log10 LC50 (converted)
  LC50: > 100 µM
[1]; Homo sapiens, six leukemia cancer cell lines, exposure at least 48 h, read-out: GI50, range over the panel
  GI50: 2.5 to 6.92 µM
[1]; Leukemia panel
  mean graph midpoint value (MG_MID) of Log10 GI50: −5.38 log10(mol/L)
[1]; Leukemia panel, total inhibition of net cell growth
  mean graph midpoint value (MG_MID) of log10 TGI: −4.19
[2]; Homo sapiens, Melanoma panel, 50% net cell death, read-out: mean graph midpoint value (MG_MID) of Log10 LC50 (converted)
  LC50: > 100 µM
[2]; Homo sapiens, nine melanoma cancer cell lines, exposure at least 48 h, read-out: GI50, range over the panel
  GI50: 4.11 to 39.7 µM
[2]; Melanoma panel
  mean graph midpoint value (MG_MID) of Log10 GI50: −4.82 log10(mol/L)
[2]; Melanoma panel, total inhibition of net cell growth
  mean graph midpoint value (MG_MID) of log10 TGI: >−4.0
[3]; Homo sapiens, Non-small cell lung panel, 50% net cell death, read-out: mean graph midpoint value (MG_MID) of Log10 LC50 (converted)
  LC50: 93.3 µM
[3]; Homo sapiens, nine Non-small cell lung cancer cell lines, exposure at least 48 h, read-out: GI50, range over the panel
  GI50: 5.47 to 49.3 µM
[3]; Non-small cell lung panel
  mean graph midpoint value (MG_MID) of Log10 GI50: −4.83 log10(M)
[4]; Homo sapiens, Ovarian panel, 50% net cell death, read-out: mean graph midpoint value (MG_MID) of Log10 LC50 (converted)
  LC50: > 100 µM
[4]; Homo sapiens, seven ovarian cancer cell lines, exposure at least 48 h, read-out: GI50, range over the panel
  GI50: 5.71 to 30.6 µM
[4]; Ovarian panel
  mean graph midpoint value (MG_MID) of Log10 GI50: −4.62 mol/L
[4]; Ovarian panel, total inhibition of net cell growth
  mean graph midpoint value (MG_MID) of log10 TGI: −4.11
[5]; Homo sapiens, Prostate panel, 50% net cell death, read-out: mean graph midpoint value (MG_MID) of Log10 LC50 (converted)
  LC50: > 100 µM
[5]; Homo sapiens, two prostate cancer cell lines (PC-3, DU-145), exposure at least 48 h, read-out: GI50, range over the panel
  GI50: 3.47 to 14.3 µM
[5]; Prostate panel
  mean graph midpoint value (MG_MID) of Log10 GI50: −5.16 mol/L
[5]; Prostate panel, total inhibition of net cell growth
  mean graph midpoint value (MG_MID) of log10 TGI: −4.06
Renal cancer cell lines; Homo sapiens, Renal panel, 50% net cell death, read-out: mean graph midpoint value (MG_MID) of Log10 LC50 (converted)
  CC50: 95.5 µM
Renal cancer cell lines; Homo sapiens, eight renal cancer cell lines, exposure at least 48 h, read-out: GI50, range over the panel
  GI50: 0.0432 to 38.8 µM
Renal cancer cell lines; Renal panel
  mean graph midpoint value (MG_MID) of Log10 GI50: −4.98 log10(mol/L)
Renal cancer cell lines; Renal panel, total inhibition of net cell growth
  mean graph midpoint value (MG_MID) of log10 TGI: −4.11
